Structures can show the parent of a compound that is named as a salt.
System: rabbits with normal intraocular pressure
Assay: Experiment 1: ocular hypotensive effect of eye drops (applanation pneumatonograph)
Format: in vivo, Male Dutch species coloured rabbits
Conditions: for Difference in IOP between the control and test eyes: 50 µl instilled
Procedure: The ocular hypotensive effect of the eye drops of this invention was investigated in rabbits. The same experiment was also conducted using a representative β-adrenergic blocking agent, and its ocular hypotensive effect was compared with that of eye drops of this invention. Methods: According to the formulations described in Examples 1, 2 and 3, three kinds of eye drops respectively containing 0.5, 0.05 and 0.005% of the compound (1) were prepared. As a negative control, eye drops not containing compound (1), which is eye drops described in Reference Example below, were used. The positive control was commercially available eye drops containing timolol maleate (0.5% equivalent of free base) as an active ingredient. Male Dutch species coloured rabbits (body weight: ca. 2 kg) with normal intraocular pressure were used in the experiment. Each of the test solutions (three kinds of eye drops containing 0.5, 0.05 or 0.005% of ifenprodil) (50 µl) was instilled into one eye of each rabbit, and the control solution free of ifenprodil (50 µl), the eye drops described in Reference Example, into the fellow eye which served as a control. For each solution, six rabbits were used. After anesthesia of the corneal surface by instillating 5 µl of 0.4% oxybuprocaine hydrochloride, the intraocular pressure was measured using an applanation pneumatonograph (Alcon) before and after the instillation of the test solution and control solution. Measurement of intraocular pressure after the instillation was conducted with one-hour intervals until six hours - nine hours post-instillation.

[1] = eye drops 0.5%, one hour after instillation, difference from control eye

SMILES: CC(C(O)c1ccc(O)cc1)N1CCC(Cc2ccccc2)CC1 (centres unmarked) [Compound (1), 2-(4-benzylpiperidino)-1-(4-hydroxyphenyl)-1-propanol]
- IOP reduction (eye drops 0.005%): produced IOP reduction which varies depending on concentration of compound (1)
- Difference in IOP between the control and test eyes (eye drops 0.005% free base, 1 hr): -0.79 mmHg
- Difference in IOP between the control and test eyes (eye drops 0.005% free base, 2 hr): -0.75 mmHg
- Difference in IOP between the control and test eyes (eye drops 0.005% free base, 4 hr): -0.79 mmHg
- Difference in IOP between the control and test eyes (eye drops 0.005% free base, 6 hr): -0.17 mmHg
- Difference in IOP between the control and test eyes (eye drops 0.05% free base, 1 hr): -1.79 mmHg
- Difference in IOP between the control and test eyes (eye drops 0.05% free base, 2 hr): -0.96 mmHg
- Difference in IOP between the control and test eyes (eye drops 0.05% free base, 4 hr): -0.67 mmHg
- Difference in IOP between the control and test eyes (eye drops 0.05% free base, 6 hr): -0.38 mmHg
- average IOP reduction (eye drops 0.05%, one hour after administration): 1.8 mmHg
- duration of ocular hypotensive effect (eye drops 0.5%): retained for nine hours after instillation
- time of maximal IOP reduction (eye drops 0.5%): one hour after instillation
- Difference in IOP between the control and test eyes (eye drops 0.5% free base, 1 hr): -2.67 mmHg
- Difference in IOP between the control and test eyes (eye drops 0.5% free base, 2 hr): -2.17 mmHg
- Difference in IOP between the control and test eyes (eye drops 0.5% free base, 4 hr): -1.17 mmHg
- Difference in IOP between the control and test eyes (eye drops 0.5% free base, 6 hr): -1.13 mmHg
- average IOP reduction [1]: 2.7 mmHg

SMILES: CC(C)(C)NC[C@H](O)COc1nsnc1N1CCOCC1 [Timolol maleate, timolol maleate, reference compound]
- Difference in IOP between the control and test eyes (eye drops 0.5% free base, 1 hr): -0.88 mmHg
- Difference in IOP between the control and test eyes (eye drops 0.5% free base, 2 hr): -0.58 mmHg
- Difference in IOP between the control and test eyes (eye drops 0.5% free base, 4 hr): -0.25 mmHg
- Difference in IOP between the control and test eyes (eye drops 0.5% free base, 6 hr): -0.13 mmHg
- average IOP reduction [1]: 0.9 mmHg
- average IOP reduction (eye drops 0.5%, two hours after administration): 0.6 mmHg
